{
  "source": "patent US20230035127A1",
  "about": "“CULTURE AND DIFFERENTIATION OF PLURIPOTENT STEM CELLS” (University of Maryland, College Park, priority 2021, published 2023)",
  "key": {"human eiPSCs": {"tested_on": "human eiPSCs", "assay": "3D cardiac differentiation of eiPSC spheroids: percentage of beating cardiac spheroids and outset beating time", "type": "cell-based", "details": "for beating efficiency of 3D cardiac differentiation: PSCs", "experimental": "Cardiac differentiation of the 3D eiPSC spheroids was conducted by modulating the canonical Wnt signaling pathway with agonists and antagonists sequentially, which has also been used for differentiation of human PSCs into cardiomyocytes under 2D culture. Two Wnt agonists, CHIR99021 (8 μM) and 6-bromoindirubin-3′-oxime (BIO, 2 μM), were supplemented into the culture medium on day 0, to up-regulate the Wnt signaling and induce iPSC differentiation into mesoderm for 1 day. On day 1, two Wnt antagonists, XAV939 (10 μM) and KY02111 (10 μM), were used to suppress the Wnt signaling for inducing cardiac commitment of the mesoderm cells in the following 6 days to obtain cardiac spheroids. Afterward, the cardiac spheroids were cultured in pure cardiac maintenance medium for maturation until day 13.5. […] In other words, the outset beating time (OBT) of the cardiac spheroids was synchronized to be within ˜24 h for the 1 μM RI group. No significant change in the beating percentage from day 7.5 to day 13.5 was observed. In contrast, in the 10 μM RI group, only ˜8% and ˜44% of cardiac spheroids beat on days 6.5 and 13.5, respectively (FIG. 4A, on day 13.5). […] Therefore, the OBT ranges over at least a week, indicating high heterogeneity of the cardiac spheroids in the 10 μM RI group as the beating is a direct and visible indicator of functional maturity of the cardiac spheroids.\nTo obtain 3D iPSC spheroids, the iPSC colonies under 2D culture at ˜80% confluence were treated with Versene for 2 min, rinsed with PBS, and further detached from the substrate by gentle pipetting. The detached iPSCs were re-suspended in mTeSR1 with Rock inhibitor (Y27632) at 0, 1, 5, or 10 μM. Afterward, the medium was supplemented with 0.35% (v/v) methylcellulose. The cell suspension (12 ml) containing ˜4×10^6 cells was pushed through a cell strainer with 100 μm mesh size. Later, the suspension of iPSC clumps was transferred into a petri dish (diameter: 10 cm) for culture in a humidified incubator at 37° C. and 5% CO2 for 2 days, during which the 2D iPSC clumps grew into 3D iPSC spheroids. Then, the medium was changed to mTeSR1 (supplemented with 0.35% methylcellulose) with no rock inhibitor, to further culture for 2 days before cardiac differentiation. To determine the number of cells per eiPSC spheroid, roughly equal numbers of the spheroids from either the 1 or 10 μM RI group were pooled together and trypsinized to dissociate the cells. The dissociated cells were then resuspended in 1.4 ml of the aforementioned iPSC maintenance medium and the cell number was counted using a hemocytometer. Three independent runs with 282, 260, and 256 spheroids for the 1 μM RI group and 273, 298, and 286 spheroids for the 10 μM RI group were conducted.\nThe eiPSC spheroids obtained after 4 days of culture on day 0 were induced into mesoderm by up-regulation of the Wnt signaling pathway using 8 μM CHIR99021 and 2 μM GSK inhibitor 6-bromoindirubin-3′-oxime (BIO) in the mesoderm induction medium for 1 day. The mesoderm induction medium was a mixture of DMEM/F12 and α-MEM (v/v, 1:1), containing 2% Knockout Serum Replacement (KOSR), 1 mM L-glutamine, 1% MEM non-essential amino acids (NEAA), and 0.1 mM β-mercaptoethanol. After 1 day, the spheroids were induced for cardiac commitment by down-regulating the Wnt signaling pathway using 10 μM KY02111 and 10 μM XAV939 in the cardiac maintenance medium for 6 days with the medium being changed every other day. The cardiac maintenance medium was a mixture of RPMI1640 and α-MEM (v/v, 1:1) containing 5% fetal bovine serum (FBS). Starting from day 8, the cardiac maintenance medium without KY02111 and XAV939 was used, and it was changed every other day for cardiac maturation. Images and videos of the resultant cardiac spheroids were taken using the Zeiss LSM 710 microscope before medium change."}, "[1]": {"tested_on": "eiPSC-derived cardiac spheroids", "assay": "Re-plating of cardiac spheroids in regular cell culture petri dish (attachment)", "type": "cell-based, human", "details": "day 13.5 spheroids, 3 days after re-plating", "experimental": "After 3 days, ˜61% of the cardiac spheroids in the 10 μM RI group attached to the 2D surface, and some of the cells migrated out of the spheroids appeared to be neuron-like with neurite-like processes (FIG. 4B-C). […] To confirm the aforementioned observation of neuron-like cells in the 10 μM RI group, immunofluorescence staining of cryosectioned cardiac spheroids on day 12.5 in the 1 and 10 μM RI groups was conducted. […] Therefore, studies were performed to further understand the mechanisms of the improved cardiac differentiation with the reduced RI."}},
  "note": "Where “and” joins values, the source holds several entries; their conditions need not be identical. Equal entries are not always repeated.",
  "data": [
    {"smiles": "C[C@@H](N)[C@H]1CC[C@H](C(=O)Nc2ccncc2)CC1.Cl.Cl", "note": "(relative stereo) [RI, (+)-(R)-trans-4-(1-aminoethyl)-N-(4-pyridyl) cyclo-hexanecarboxamide dihydrochloride]", "values": [
      {"measurement": "beating efficiency of 3D cardiac differentiation", "setting": "human eiPSCs; 1 μM RI, in about 7 days", "value": "more than 95%"},
      {"measurement": "percentage of beating cardiac spheroids", "setting": "human eiPSCs; 1 μM RI, day 6.5", "value": "~48", "unit": "%"},
      {"measurement": "percentage of beating cardiac spheroids", "setting": "human eiPSCs; 5 μM RI, day 9.5", "value": "~61", "unit": "%"},
      {"measurement": "beating efficiency of 3D cardiac differentiation", "setting": "human eiPSCs; 10 μM RI, in 14 days", "value": "less than 50%"},
      {"measurement": "outset beating time (OBT)", "setting": "human eiPSCs; 10 μM RI, day 6-6.5 to day 13.5", "value": "more than 7 days"},
      {"measurement": "percentage of beating cardiac spheroids", "setting": "human eiPSCs; 10 μM RI, day 6.5", "value": "~8", "unit": "%"},
      {"measurement": "percentage of beating cardiac spheroids", "setting": "human eiPSCs; 10 μM RI, day 13.5, dihydrochloride", "value": "~44% and 44.3%"},
      {"measurement": "percentage of cardiac spheroids attached to the 2D surface", "setting": "[1]; 5 μM RI", "value": "~41", "unit": "%"},
      {"measurement": "percentage of cardiac spheroids attached to the 2D surface", "setting": "[1]; 10 μM RI, dihydrochloride", "value": "~61% and > 60%"}
    ]}
  ]
}
